# In patent US20120208781A1, “AMINOGLYCOSIDE DOSING REGIMENS” (Achaogen, Inc., priority 2009, published 2012):
# Read-outs that look alike come from different tables or passages of the source.
# What was measured:
# P. aeruginosa (PSA) = assay: MIC, CLSI broth microdilution, worldwide isolates: P. aeruginosa; format: cell-based
# From the text: In the first study, a total of 235 isolates were collected from medical centers worldwide and tested for susceptibility to Compound 1 and comparator agents by CLSI broth microdilution methods. […] Non-ENT GN pathogens included WT P. aeruginosa (PSA) and Acinetobacter spp. (ACB), and carbapenem (CARB)-R strains, including those with MBL and OXA enzymes, SA and coagulase-negative staphylococci (CoNS) included oxacillin-susceptible (MSSA/MS-CoNS) and —R (MRSA/MR-CoNS) strains.
# Minimum inhibitory concentrations (MIC) were determined by reference Clinical and Laboratory Standards Institute (CLSI) broth microdilution methods per M7-A7 [2006]. Briefly, serial two-fold dilutions of Compound 1 and comparator AGs (together, “the test compounds”) were prepared at 2× concentration in appropriate diluent. The dilutions were mixed in 96-well assay plates with bacterial inoculum. Bacteria were suspended in sterile saline and added to each assay plate to obtain a final concentration of 5.5×10^5 CFU/mL. The plates were incubated at 35° C. for 20 hours in ambient air. […] After incubation, assay plates were read using a microtiter plate reader at 600 nm.
# K. pneumoniae (KP) = assay: MIC, broth microdilution, Brooklyn hospital isolates: K. pneumoniae; format: cell-based; settings: Klebsiella pneumoniae; KP (n = 71)
# Protocol: (§1) In another study, the activity of Compound 1 against a collection of contemporary Gram-negative bacteria was determined. Unique patient isolates of P. aeruginosa (PA), A. baumannii (AB), K. pneumoniae (KP), E. coli (EC), and Enterobacter spp. (EB) from prior surveys at 16 Brooklyn, N.Y. hospitals were selected based on resistance patterns. The majority of isolates were fingerprinted by automated ribotyping. MICs were performed by broth microdilution. PCR was used to identify aminoglycoside-modifying enzymes (AMEs) in AB and KP and the KPC gene in Enterobacteriaceae (EN). The expression of the efflux genes mexA, C, E and X in PA, and adeB in AB was assessed by real-time RT-PCR.
# E. coli (EC) = assay: MIC, broth microdilution, Brooklyn hospital isolates: E. coli; format: cell-based; settings: Escherichia coli; EC (n = 32)
# Protocol: as §1
# [1] = First-in-human phase 1 study: plasma pharmacokinetics of Compound 1; format: in vivo; settings: for AUC(0-inf) / Cmax / clearance / half-life: both sexes, human, plasma, intravenous, human plasma, single dose
# From the text: The initial, first-in-human (FIH) phase 1 study was a double-blind, randomized, placebo-controlled, parallel-group, single- and multiple-dose-escalation study to assess the safety, tolerability, and pharmacokinetics of Compound 1 administered IV to healthy adult volunteers. In addition, the design of this FIH phase 1 study provided rationale and support for dosing for the proposed phase 2 study in patients with cUTI (see FIG. 11).
# This study was designed with four escalating dose arms in both single-dose and multiple-dose phases. Compound 1 was formulated as a sterile solution at a concentration of 50 mg/mL in 10 mL glass vials for intravenous (IV) administration (“Compound 1 Injection”). To support high-dose, short-course therapy, the FIH phase 1 study investigated escalating doses with shorter durations at the higher dosages. At least 32 male and female healthy subjects (8 per Cohort) were randomized to receive a single dose of either Compound 1 Injection or placebo administered IV by 10 minute infusion in a double-blinded manner, as shown below:
# Cohort 1a: 1 mg/kg Single Dose (SD) only
# Cohort 1b: 4 mg/kg SD and Multiple Doses (MD) for 10 days
# Cohort 2: 7 mg/kg SD and MD for 10 days
# Cohort 3: 11 mg/kg SD and MD for 5 days
# Cohort 4: 15 mg/kg SD and MD for 3 days
# Blood and urine samples for safety laboratory tests were obtained during the screen period, before and after the single-dose, before and after the multiple-dose (additional samples were obtained during multiple-dose period depending on MD duration). Blood samples for PK analysis were obtained with the single dose and first and last multiple-doses at the following times:
# 5, 10, 15, 20, 30, 45, 60 minutes after the start of the infusion; and
# 1, 1.5, 2, 2.5 (Cohorts 3 and 4 only), 3, 4, 6, 8, 12, 16, 24, and 48 hours after the start of the infusion.
# For subjects in the 10-day multiple-dose cohorts, additional blood samples for PK analysis were obtained predose on days 11, 13, and 15.
# [2] = Pseudomonas aeruginosa, PSA isolates
# [3] = 1 mg/kg, 24 hours, Cohort 1 a (1 mg/kg), compartmental (2) analysis, ± SE
# [4] = 1 mg/kg, 48 hours, Cohort 1a (1 mg/kg), noncompartmental analysis, ± SD
# [5] = 4 mg/kg, 24 hours, Cohort 1b (4 mg/kg), compartmental (2) analysis, ± SE
# [6] = 4 mg/kg, 48 hours, Cohort 1b (4 mg/kg), noncompartmental analysis, ± SD
# [7] = 7 mg/kg, 24 hours, Cohort 2 (7 mg/kg), compartmental (2) analysis, ± SE
# [8] = 7 mg/kg, 48 hours, Cohort 2 (7 mg/kg), noncompartmental analysis, ± SD
# [9] = 11 mg/kg, 24 hours, Cohort 3 (11 mg/kg), compartmental (2) analysis, ± SE
# [10] = 11 mg/kg, 48 hours, Cohort 3 (11 mg/kg), noncompartmental analysis, ± SD
# [11] = 15 mg/kg, 24 hours, Cohort 4 (15 mg/kg), compartmental (2) analysis, ± SE
# [12] = 15 mg/kg, 48 hours, Cohort 4 (15 mg/kg), noncompartmental analysis, ± SD
# [13] = healthy volunteers, 1-15 mg/kg IV 10 minute infusion
structure (smiles),measurement,setting,value
"CN[C@@H]1[C@@H](O)[C@@H](O[C@@H]2[C@@H](O)[C@H](O[C@H]3OC(CNCCO)=CC[C@H]3N)[C@@H](N)C[C@H]2NC(=O)[C@@H](O)CCN)OC[C@]1(C)O [Compound 1, 6′-(2-Hydroxy-ethyl)-1-(4-amino-2(S)-hydroxy-butyryl)-sisomicin]",Cumulative % inhibited at Cmpd. MIC 1,P. aeruginosa (PSA); PSA (30),3.3%
same,Cumulative % inhibited at Cmpd. MIC 2,P. aeruginosa (PSA); PSA (30),3.3%
same,Cumulative % inhibited at Cmpd. MIC 4,P. aeruginosa (PSA); PSA (30),30.0%
same,Cumulative % inhibited at Cmpd. MIC 8,P. aeruginosa (PSA); PSA (30),50.0%
same,Cumulative % inhibited at Cmpd. MIC 16,P. aeruginosa (PSA); PSA (30),76.7%
same,Cumulative % inhibited at Cmpd. MIC 32,P. aeruginosa (PSA); PSA (30),96.7%
same,Cumulative % inhibited at Cmpd. MIC 64,P. aeruginosa (PSA); PSA (30),96.7%
same,Cumulative % inhibited at Cmpd. MIC >64,P. aeruginosa (PSA); PSA (30),100.0%
same,Cumulative % inhibited at Cmpd. MIC ≦0.5,P. aeruginosa (PSA); PSA (30),0.0%
same,Cumulative % inhibited at Cmpd. MIC 1,"P. aeruginosa (PSA); PSA, CARB-R (20)",0.0%
same,Cumulative % inhibited at Cmpd. MIC 2,"P. aeruginosa (PSA); PSA, CARB-R (20)",0.0%
same,Cumulative % inhibited at Cmpd. MIC 4,"P. aeruginosa (PSA); PSA, CARB-R (20)",10.0%
same,Cumulative % inhibited at Cmpd. MIC 8,"P. aeruginosa (PSA); PSA, CARB-R (20)",25.0%
same,Cumulative % inhibited at Cmpd. MIC 16,"P. aeruginosa (PSA); PSA, CARB-R (20)",65.0%
same,Cumulative % inhibited at Cmpd. MIC 32,"P. aeruginosa (PSA); PSA, CARB-R (20)",95.0%
same,Cumulative % inhibited at Cmpd. MIC 64,"P. aeruginosa (PSA); PSA, CARB-R (20)",95.0%
same,Cumulative % inhibited at Cmpd. MIC >64,"P. aeruginosa (PSA); PSA, CARB-R (20)",100.0%
same,Cumulative % inhibited at Cmpd. MIC ≦0.5,"P. aeruginosa (PSA); PSA, CARB-R (20)",0.0%
same,Cumulative % inhibited at Cmpd. MIC 1,"P. aeruginosa (PSA); PSA, WT (10)",10.0%
same,Cumulative % inhibited at Cmpd. MIC 2,"P. aeruginosa (PSA); PSA, WT (10)",10.0%
same,Cumulative % inhibited at Cmpd. MIC 4,"P. aeruginosa (PSA); PSA, WT (10)",70.0%
same,Cumulative % inhibited at Cmpd. MIC 8,"P. aeruginosa (PSA); PSA, WT (10)",100.0%
same,Cumulative % inhibited at Cmpd. MIC ≦0.5,"P. aeruginosa (PSA); PSA, WT (10)",0.0%
same,MIC50,P. aeruginosa (PSA); [2],8 µg/mL
same,MIC90,P. aeruginosa (PSA); [2],32 µg/mL
same,MIC50,K. pneumoniae (KP),0.5 µg/mL
same,MIC90,K. pneumoniae (KP),1 µg/mL
same,MIC50,E. coli (EC),1 µg/mL
same,MIC90,E. coli (EC),2 µg/mL
same,accumulation over three days,"[1]; Cohort 4, 15 mg/kg every 24 hours for three days","very little, in any, accumulation"
same,AUC(0-inf),[1]; [3],15000 ± 1000 ng·h/mL
same,Cmax,[1]; [3],8000 ± 800 ng/mL
same,clearance,[1]; [3],1.13 mL/min/kg
same,half-life,"[1]; 1 mg/kg, 24 hours, Cohort 1 a (1 mg/kg), compartmental (2) analysis, ± SE, read-out: t1/2 alpha (converted)",0.5 ± 0.1 h
same,half-life,"[1]; 1 mg/kg, 24 hours, Cohort 1 a (1 mg/kg), compartmental (2) analysis, ± SE, read-out: t1/2 beta (converted)",3.5 ± 0.2 h
same,AUC(0-inf),"[1]; 1 mg/kg, 48 hours, Cohort 1a (1 mg/kg)",14000 ± 1000 ng·h/mL
same,Cmax,[1]; [4],7000 ± 700 ng/mL
same,clearance,[1]; [4],1.23 mL/min/kg
same,AUC(0-inf),[1]; [5],65000 ± 4000 ng·h/mL
same,Cmax,[1]; [5],38000 ± 4000 ng/mL
same,clearance,[1]; [5],1.03 mL/min/kg
same,half-life,"[1]; 4 mg/kg, 24 hours, Cohort 1b (4 mg/kg), compartmental (2) analysis, ± SE, read-out: t1/2 alpha (converted)",0.3 ± 0.1 h
same,half-life,"[1]; 4 mg/kg, 24 hours, Cohort 1b (4 mg/kg), compartmental (2) analysis, ± SE, read-out: t1/2 beta (converted)",3 ± 0.1 h
same,AUC(0-inf),"[1]; 4 mg/kg, 48 hours, Cohort 1b (4 mg/kg)",61000 ± 8000 ng·h/mL
same,Cmax,[1]; [6],32000 ± 5000 ng/mL
same,clearance,[1]; [6],1.12 mL/min/kg
same,AUC(0-inf),[1]; [7],89000 ± 4000 ng·h/mL
same,Cmax,[1]; [7],40000 ± 3000 ng/mL
same,clearance,[1]; [7],1.3 mL/min/kg
same,half-life,"[1]; 7 mg/kg, 24 hours, Cohort 2 (7 mg/kg), compartmental (2) analysis, ± SE, read-out: t1/2 alpha (converted)",0.7 ± 0.1 h
same,half-life,"[1]; 7 mg/kg, 24 hours, Cohort 2 (7 mg/kg), compartmental (2) analysis, ± SE, read-out: t1/2 beta (converted)",3.1 ± 0.1 h
same,AUC(0-inf),"[1]; 7 mg/kg, 48 hours, Cohort 2 (7 mg/kg)",88000 ± 12000 ng·h/mL
same,Cmax,[1]; [8],46000 ± 7000 ng/mL
same,clearance,[1]; [8],1.35 mL/min/kg
same,AUC(0-inf),[1]; [9],186000 ± 8000 ng·h/mL
same,Cmax,[1]; [9],106000 ± 10000 ng/mL
same,clearance,[1]; [9],0.983 mL/min/kg
same,half-life,"[1]; 11 mg/kg, 24 hours, Cohort 3 (11 mg/kg), compartmental (2) analysis, ± SE, read-out: t1/2 alpha (converted)",0.3 ± 0.1 h
same,half-life,"[1]; 11 mg/kg, 24 hours, Cohort 3 (11 mg/kg), compartmental (2) analysis, ± SE, read-out: t1/2 beta (converted)",3.1 ± 0.1 h
same,AUC(0-inf),"[1]; 11 mg/kg, 48 hours, Cohort 3 (11 mg/kg)",176000 ± 34000 ng·h/mL
same,Cmax,[1]; [10],114000 ± 27000 ng/mL
same,clearance,[1]; [10],1.08 mL/min/kg
same,AUC(0-inf),[1]; [11],250000 ± 9000 ng·h/mL
same,Cmax,[1]; [11],116000 ± 8000 ng/mL
same,clearance,[1]; [11],1 mL/min/kg
same,half-life,"[1]; 15 mg/kg, 24 hours, Cohort 4 (15 mg/kg), compartmental (2) analysis, ± SE, read-out: t1/2 alpha (converted)",0.8 ± 0.1 h
same,half-life,"[1]; 15 mg/kg, 24 hours, Cohort 4 (15 mg/kg), compartmental (2) analysis, ± SE, read-out: t1/2 beta (converted)",3.1 ± 0.2 h
same,AUC(0-inf),"[1]; 15 mg/kg, 48 hours, Cohort 4 (15 mg/kg)",242000 ± 37000 ng·h/mL
same,half-life,"[1]; 15 mg/kg, 48 hours, Cohort 4 (15 mg/kg), compartmental (2) analysis, read-out: t½ alpha (converted)",3 h
same,half-life,"[1]; 15 mg/kg, 48 hours, Cohort 4 (15 mg/kg), compartmental (2) analysis, read-out: t½ beta (converted)",15 h
same,Cmax,[1]; [12],144000 ± 45000 ng/mL
same,clearance,[1]; [12],1.05 mL/min/kg
same,derived serum clearance rate across doses,[1]; [13],remained constant
same,dose proportionality of plasma PK,[1]; [13],clear dose proportionality
